{
  "source": "patent US20160045446A1",
  "about": "“ORAL ADMINISTRATION PREPARATION WITH MASKED BITTERNESS OF SILODOSIN” (KISSEI PHARMACEUTICAL CO., LTD., priority 2013, published 2016)",
  "assay": "Compatibility test of silodosin with polymer-based materials",
  "assay_type": "physicochemical",
  "conditions": "silodosin:material 1:1 by mass, 40° C., 75% relative humidity, 4 weeks, visual examination",
  "protocol": "Silodosin and a variety of polymer-based materials were mixed in the mass ratio of 1:1. The mixtures were stored at 40° C. under 75% relative humidity for 4 weeks, and the changes on blending, i.e. incompatibility, were checked. Degradation products were quantified by a liquid chromatography method and a degree of discoloration was checked by visual examination.\nSamples equivalent to 20 mg of silodosin were weighed, and test solutions were prepared and analyzed by the liquid chromatography method. Each peak area was measured by an automatic integration method and a content rate of degradation product (KMD-3241) (%) was calculated by an area percentage method.\nDetector: Ultraviolet Absorption Photometer (Wavelength: 225 nm)",
  "data": [
    {"smiles": "C[C@H](Cc1cc2c(c(C(N)=O)c1)N(CCCO)CC2)NCCOc1ccccc1OCC(F)(F)F", "note": "[Silodosin (reference), Silodosin]", "values": [
      {"measurement": "Color change (fading)", "result": "−"}
    ]}
  ]
}
